# According to patent publication US6825192B1, “Heterodiazinone derivatives” (Eisai Co., Ltd., priority 1999, dated 2004):
# Counter-ions that a name gives are not always drawn.
# Tested on: AMPA receptor
# Assay: Inhibitory action on AMPA-inducing inflow of calcium into nerve cells (Fura2-AM)
# Type: cell-based
# Settings: rat cerebral cortex nerve cells on astrocytes, 1 μM MK-801, stimulated by 2 μM AMPA, fluorescence 340/380 nm
# Method: The cerebral cortex was excised from the brain of a rat on day 18 after birth and treated with trypsin and DNase, whereby the cells were dispersed. The cells were allowed to float on DMEM containing 10% serum, inoculated into a culture bottle, and their astrocytes were grown. The astrocytes were re-dispersed with trypsin and inoculated onto each well on a 96-well plate. After it was confirmed that the bottom of each well was completely covered with the astrocytes after culture for 1 week, cerebral cortex nerve cells dispersed in the same manner as above were inoculated thereon. After 24 hours, the medium was exchanged with fresh one, and after culture for further 1 week, the medium was exchanged with a medium containing 1 μM MK-801.
# The inflow of calcium into the cells was measured using Fura2-AM that is a calcium-sensitive fluorescent pigment. By treating the cells with a Fura2-AM-containing medium for 1 hour, Fura2-AM was incorporated into the cells, and the medium was exchanged with a Tyrode solution containing 1 μM MK-801. After a test compound was added, the cells were stimulated by 2 μM AMPA. The change in the amount of calcium flowing into the cells was measured as a change in the fluorescence intensity at wavelengths of 340/380 nm. The effect of a test compound was evaluated where the reaction caused by AMPA added to the Tyrode solution free of the test compound was used as the control.
row,Compound,IC50 [µM]
1,"Cn1cccc1C1=NN(c2ccccc2)C(=O)CO1 [Example 3, 2-(1-Methyl-2-pyrolyl)-4-phenyl-4H-1,3,4-oxadiazine-5(6H)-one]",33.2
2,"O=C1CSC(c2ccccc2)=NN1c1ccccc1 [Example 4, 2,4-Diphenyl-4H-1,3,4-thiadiazine-5(6H)-one]",12
3,"O=C1COC(c2ccc[nH]2)=NN1c1ccccc1 [Example 6, 2-(2-Pyrrolyl)-4-phenyl-4H-1,3,4-oxadiazine-5(6H)-one]",48
4,"Cc1cccc(C2=NN(c3ccccc3)C(=O)CO2)n1 [Example 8, 2-(6-Methyl-2-pyridyl)-4-phenyl-4H-1,3,4-oxadiazine-5(6H)-one hydrochloride]",21.1
5,"O=C1COC(c2ccccn2)=NN1c1ccc(F)cc1F [Example 10, 2-(2-Pyridyl)-4-(2,4-difluorophenyl)-4H-1,3,4-oxadiazine-5(6H)-one hydrochloride]",44.2
6,"O=C1COC(c2ccccn2)=NN1C1CCCCC1 [Example 11, 2-(2-Pyridyl)-4-cyclohexyl-4H-1,3,4-oxadiazine-5(6H)-one hydrochloride]",69
7,"O=C1COC(c2ccnc(Cl)c2)=NN1c1ccccc1 [Example 12, 2-(2-Chloro-4-pyridyl)-4-phenyl-4H-1,3,4-oxadiazine-5(6H)-one hydrochloride]",42.8
8,"O=C1COC(/C=C/c2ccccc2)=NN1c1ccccc1 [Example 15, 2-Styryl-4-phenyl-4H-1,3,4-oxadiazine-5(6H)-one]",27.5
9,"O=C1COC(/C=C/c2cccnc2)=NN1c1ccccc1 [Example 16, 2-[2-(3-Pyridyl)vinyl]-4-phenyl-4H-1,3,4-oxadiazine-5(6H)-one]",24.9
10,"COc1ccccc1C1=NN(c2ccccc2Br)C(=O)CO1 [Example 17, 2-(2-Methoxyphenyl)-4-(2-bromophenyl)-4H-1,3,4-oxadiazine-5(6H)-one]",5.83
11,"O=C1COC(c2ccccc2[N+](=O)[O-])=NN1c1ccccc1 [Example 20, 2-(2-Nitrophenyl)-4-phenyl-4H-1,3,4-oxadiazine-5(6H)-one]",28.2
12,"O=C1COC(C2CCCCC2)=NN1c1ccccc1 [Example 22, 2-Cyclohexyl-4-phenyl-4H-1,3,4-oxadiazine-5(6H)-one]",67.3
13,"COc1ccccc1C1=NN(c2ccccc2F)C(=O)CO1 [Example 26, 2-(2-Methoxyphenyl)-4-(2-fluorophenyl)-4H-1,3,4-oxadiazine-5(6H)-one]",10.8
14,"O=C1COC(c2ccccc2)=NN1C1CCCCC1 [Example 27, 2-Phenyl-4-cyclohexyl-4H-1,3,4-oxadiazine-5(6H)-one]",33.1
15,"COc1ccccc1C1=NN(C2CCCCC2)C(=O)CO1 [Example 28, 2-(2-Methoxyphenyl)-4-cyclohexyl-4H-1,3,4-oxadiazine-5(6H)-one]",25.2
16,"O=C1COC(c2cccnc2)=NN1c1ccccc1 [Example 29, 2-(3-Pyridyl)-4-phenyl-4H-1,3,4-oxadiazine-5(6H)-one hydrochloride]",43.5
17,"O=C1COC(c2ccccc2)=NN1c1ccccc1Br [Example 30, 2-Phenyl-4-(2-bromophenyl)-4H-1,3,4-oxadiazine-5(6H)-one]",1.73
18,"O=C1COC(c2cccs2)=NN1c1ccccc1 [Example 31, 2-(2-Thienyl)-4-phenyl-4H-1,3,4-oxadiazine-5(6H)-one]",8.3
19,"O=C1COC(Cc2ccccc2)=NN1c1ccccc1 [Example 32, 2-Benzyl-4-phenyl-4H-1,3,4-oxadiazine-5(6H)-one]",36.6
20,"O=C1COC(c2ccccn2)=NN1c1ccccc1Br [Example 33, 2-(2-Pyridyl)-4-(2-bromophenyl)-4H-1,3,4-oxadiazine-5(6H)-one]",4.28
21,"O=C1COC(c2ccccn2)=NN1c1ccccc1F [Example 34, 2-(2-Pyridyl)-4-(2-fluorophenyl)-4H-1,3,4-oxadiazine-5(6H)-one]",9.21
22,"COc1ccccc1N1N=C(c2ccccn2)OCC1=O [Example 35, 2-(2-Pyridyl)-4-(2-methoxyphenyl)-4H-1,3,4-oxadiazine-5(6H)-one]",42.7
23,"O=C1COC(c2ccccc2)=NN1c1ccccc1[N+](=O)[O-] [Example 37, 2-Phenyl-4-(2-nitrophenyl)-4H-1,3,4-oxadiazine-5(6H)-one]",3.94
24,"O=C1COC(c2ccccc2)=NN1c1cccnc1 [Example 39, 2-Phenyl-4-(3-pyridyl)-4H-1,3,4-oxadiazine-5(6H)-one hydrochloride]",51.4

row,Compound,IC50 [µM]
1,"N#Cc1cccnc1N1N=C(c2ccccc2)OCC1=O [Example 40, 2-Phenyl-4-(3-cyano-2-pyridyl)-4H-1,3,4-oxadiazine-5(6H)-one hydrochloride]",34.8
2,"O=C1COC(c2ccccc2)=NN1c1ccccc1CO [Example 41, 2-Phenyl-4-(2-hydroxymethylphenyl)-4H-1,3,4-oxadiazine-5(6H)-one]",53.3
3,"N#Cc1ncccc1N1N=C(c2ccccc2)OCC1=O [Example 42, 2-Phenyl-4-(2-cyano-3-pyridyl)-4H-1,3,4-oxadiazine-5(6H)-one hydrochloride]",3.13
4,"O=C1COC(c2ccccc2)=NN1c1cccs1 [Example 43, 2-Phenyl-4-(2-thienyl)-4H-1,3,4-oxadiazine-5(6H)-one]",25.3
5,"O=C1COC(c2ccccc2)=NN1c1ccsc1 [Example 44, 2-Phenyl-4-(3-thienyl)-4H-1,3,4-oxadiazine-5(6H)-one]",22.7
6,"N#Cc1cccc(N2N=C(c3ccccc3)OCC2=O)c1 [Example 46, 2-Phenyl-4-(3-cyanophenyl)-4H-1,3,4-oxadiazine-5(6H)-one]",13.1
7,"O=C1COC(c2ccccc2O)=NN1c1ccccc1Br [Example 48, 2-(2-hydroxyphenyl)-4-(2-bromophenyl)-4H-1,3,4-oxadiazine-5(6H)-one]",1.29
8,"O=C1COC(c2ccccc2O)=NN1c1ccccc1 [Example 49, 2-(2-Hydroxyphenyl)-4-phenyl-4H-1,3,4-oxadiazine-5(6H)-one]",2.7
9,"O=C1COC(c2ccccc2)=NN1c1ccccc1O [Example 50, 2-Phenyl-4-(2-hydroxyphenyl)-4H-1,3,4-oxadiazine-5(6H)-one]",27.9
10,"O=C1COC(c2ccccc2O)=NN1c1ccccc1F [Example 51, 2-(2-Hydroxyphenyl)-4-(2-fluorophenyl)-4H-1,3,4-oxadiazine-5(6H)-one]",1.06
11,"O=C1COC(c2ccccc2O)=NN1c1ccc(F)cc1 [Example 52, 2-(2-Hydroxyphenyl)-4-(4-fluorophenyl)-4H-1,3,4-oxadiazine-5(6H)-one]",1.52
12,"O=C1COC(c2ccccc2O)=NN1c1ccc(F)cc1F [Example 53, 2-(2-Hydroxyphenyl)-4-(2,4-difluorophenyl)-4H-1,3,4-oxadiazine-5(6H)-one]",1.92
13,"O=C1COC(c2ccccc2OCc2ccncc2)=NN1c1ccccc1 [Example 55, 2-[2-(4-Pyridyl)methoxyphenyl]-4-phenyl-4H-1,3,4-oxadiazine-5(6H)-one]",10.5
14,"O=C1COC(c2ccccc2OCCN2CCOCC2)=NN1c1ccccc1 [Example 56, 2-{2-[2-(4-Morpholinyl)ethoxy]phenyl}-4-phenyl-4H-1,3,4-oxadiazine-5(6H)-one hydrochloride]",17.6
15,"O=C1COC(c2ccccc2OCc2cccnc2)=NN1c1ccccc1 [Example 58, 2-[2-(3-Pyridyl)methoxyphenyl]-4-phenyl-4H-1,3,4-oxadiazine-5(6H)-one hydrochloride]",14.3
16,"O=C1COC(c2ccccc2OCCN2CCCCC2)=NN1c1ccccc1 [Example 59, 2-{2-[2-(1-Piperidyl)ethoxy]phenyl}-4-phenyl-4H-1,3,4-oxadiazine-5(6H)-one]",8.29
17,"O=C1COC(c2ccccc2OCCN2CCCC2)=NN1c1ccccc1 [Example 60, 2-{2-[2-(1-Pyrrolidinyl)ethoxy]phenyl}-4-phenyl-4H-1,3,4-oxadiazine-5(6H)-one]",7.26
18,"CN(C)CCOc1ccccc1C1=NN(c2ccccc2)C(=O)CO1 [Example 61, 2-[2-(2-Dimethylaminoethoxy)phenyl]-4-phenyl-4H-1,3,4-oxadiazine-5(6H)-one hydrochloride]",4.61
19,"CN(C)CCCOc1ccccc1C1=NN(c2ccccc2)C(=O)CO1 [Example 62, 2-[2-(3-Dimethylaminopropoxy)phenyl]-4-phenyl-4H-1,3,4-oxadiazine-5(6H)-one hydrochloride]",25.1
20,"O=C1COC(c2ccccc2OCCCN2CCCCC2)=NN1c1ccccc1 [Example 63, 2-{2-[3-(1-Piperidinyl)propoxy]phenyl}-4-phenyl-4H-1,3,4-oxadiazine-5(6H)-one hydrochloride]",24.7
21,"CN(C)CCOc1ccccc1C1=NN(c2ccccc2F)C(=O)CO1 [Example 66, 2-[2-(2-Dimethylaminoethoxy)phenyl]-4-(2-fluorophenyl)-4H-1,3,4-oxadiazine-5(6H)-one hydrochloride]",3.54
22,"O=C1COC(c2ccccc2OCCN2CCOCC2)=NN1c1ccccc1F [Example 67, 2-{2-[2-(4-Morpholinyl)ethoxy]phenyl}-4-(2-fluorophenyl)-4H-1,3,4-oxadiazine-5(6H)-one hydrochloride]",6.62
23,"O=C1COC(c2ccccc2OCCN2CCOCC2)=NN1C1CCCCC1 [Example 69, 2-{2-[2-(4-Morpholinyl)ethoxy]phenyl}-4-cyclohexyl-4H-1,3,4-oxadiazine-5(6H)-one hydrochloride]",68.7
